# Reference: US4831029A, “Condensed cyclic triazole derivatives, pharmaceutical compositions and use” (priority 1986, dated 1989)
# Structures can show the parent of a compound that is named as a salt.
# Experiments:
# Assay type in all cases: in vivo
# [1] = Hexobarbital narcosis potentiating effect; settings: for Hexobarbital narcosis potentiating effect T.I. (therapeutical index): narcosis potentiation; for ED50: positive = narcosis time lengthened to at least 2.5-fold of control
# Protocol: In the hexobarbital narcosis potentiating test those animals are regarded as showing positive reaction in which the average narcosis time is lengthened to at least 2.5-fold of that of the control group.
# The ED50 values are calculated from the data thus transformed.
# [2] = Motility inhibiting effect; settings: for Motility inhibiting effect T.I. (therapeutical index): motility inhibition; for ED50: read-out: Motility inhibiting effect ED50
# Excerpt: (§1) The following test methods are used: Motility inhibition test: J. Borsy, E. Csanyi, J. Lazar: J. Arch. Int. Pharmacodyn. 124, 1-2 (1960); Inhibition of tetracor spasms: R. Benzinger, D. Hane: Arch. Int Pharmacodyn. 167, 245-249 (1967).
# [3] = Spasmolytic effect (inhibition of tetracor spasms); settings: for ED50: inhibition of tetracor spasms
# Excerpt: as §1
# [4] = Yohimbine potentiating effect
# Protocol: The yohimbine potentiating effect is determined by the method of R. M. Quinton: Brit. […] Scand.
smiles,measurement,setting,value
"CN(C)CCCn1c2c(c(=O)n3nc(N4CCOCC4)nc13)CCN(Cc1ccccc1)C2 [Example 19, 8-Benzyl-10-(3-dimethylaminopropyl)-2-morpholino-6,7,8,9-tetrahydro-pyrido[3,4-d]-1,2,4-triazolo[1,5-a]pyrimidine-5(10H)-one]",Hexobarbital narcosis potentiating effect T.I. (therapeutical index),[1],6.0
same,ED50,[1],200 mg/kg
same,Motility inhibiting effect T.I. (therapeutical index),[2],6.0
same,ED50,[2]; motility inhibition test,200 mg/kg
"CCCC(C)(COC(N)=O)COC(N)=O [Meprobamat, reference compound]",Hexobarbital narcosis potentiating effect T.I. (therapeutical index),[1],4.1
same,ED50,[1],260 mg/kg
same,Motility inhibiting effect T.I. (therapeutical index),[2],4.1
same,ED50,[2],270 mg/kg
"O=c1c2c(n(CCN3CCCCC3)c3nc(N4CCOCC4)nn13)CN(Cc1ccccc1)CC2 [Example 19c, 8-Benzyl-2-morpholino-10-(2-piperidino-ethyl)-6,7,8,9-tetrahydro-pyrido[3,4-d]-1,2,4-triazolo[1,5-a]pyrimidine-5(10H)-one]",Spasmolytic effect T.I. (therapeutical index),[3],6.7
same,ED50,[3],150 mg/kg
same,Yohimbin potentiating effect T.I. (therapeutical index),"[4]; T.I.=therapeutical index, yohimbine potentiation",47
"O=c1c2c(n(CCN3CCCCC3)c3nc(N4CCOCC4)nn13)CCN(Cc1ccccc1)C2 [Example 18, 7-Benzyl-2-morpholino-10-(2-piperidinoethyl)-6,7,8,9-tetrahydro-pyrido[4,3-d]-1,2,4-triazolo[1,5-a]pyrimidine-5(10H)-one]",Spasmolytic effect T.I. (therapeutical index),[3],6.6
same,ED50,[3],150 mg/kg
"CN(C)CCC=C1c2ccccc2CCc2ccccc21 [Amitriptilin, reference compound]",ED50,"[4]; method of Quinton, read-out: Yohimbin potentiating effect ED50",12.5 mg/kg
"CN1C(=O)OC(C)(C)C1=O [Trimetadion, reference compound]",ED50,[3],490 mg/kg
"O=c1c2c(n(CCN3CCCC3)c3nc(N4CCOCC4)nn13)CN(Cc1ccccc1)CC2 [Example 20, 8-Benzyl-2-morpholino-10-(2-pyrrolidinoethyl)-6,7,8,9-tetrahydro-pyrido[3,4-d]-1,2,4-triazolo[1,5-a]pyrimidine-5(10H)-one]",Spasmolytic effect T.I. (therapeutical index),[3],6.5
same,ED50,[3],155 mg/kg
"CSc1nc2n(CCCN3CCOCC3)c3c(c(=O)n2n1)CN(Cc1ccccc1)CC3 [Example 19g, 7-Benzyl-2-methylthio-10-(3-morpholino-propyl)-6,7,8,9-tetrahydro-pyrido[4,3-d]-1,2,4-triazolo[1,5-a]pyrimidine-5(10H)-one fumarate]",Spasmolytic effect T.I. (therapeutical index),[3],8.5
same,ED50,[3],100 mg/kg
